Reference: patent publication US20020103228A1, “Composition and method for use of pyridinium derivatives in cosmetic and therapeutic applications” (TORRENT PHARMACEUTICALS LTD., priority 1999, published 2002)
Like-named read-outs stand apart in the source and are kept apart here.

How the values were obtained:
arterial stiffness = details: diabetes induced (Wolffenbutel 1998); cited from earlier work
[1] = Free radical scavenging activity on ABTS radical cation; assay type: biochemical
Summary of the method: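 ABTS radical cation generated with horseradish peroxidase and 1.08 mM H2O2 stock in PBS, preincubated 30 min at 30 °C. Serial dilutions were added, and absorbance at 730 nm was read immediately against PBS blank. % activity = (OD test/OD control ×100) − 100.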

AGE-BSA = target: T1, AGE-BSA (Bos taurus, UniProt P02769); test: In-vitro AGE breaking activity by ELISA; assay type: biochemical, Bovine; details: 37° C., 24 hours
T1 construct: Bovine serum albumin (fraction V) (BSA); from tissue; host or cells: bovine serum (fraction V); glycated in house with 1.6 M glucose at 37 °C for 16 weeks
Summary of the method: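 BSA glycated with 1.6 M glucose in PBS at 37° C for 16 weeks, then dialyzed; 10 μg/ml AGE-BSA incubated with test compounds 24 h at 37° C. Remaining AGE-BSA coated at 5–20 ng/well and quantified by ELISA (anti-AGE-BSA primary, HRP anti-rabbit, OPD, OD 450–620 nm); % breaking calculated versus untreated 20 ng AGE-BSA.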

[2] = test system: Rat-Tail Tendon collagen of diabetic male wister rats; details: 8 weeks of treatment
Method: To evaluate AGE breaker efficacy of compounds of formula (I) the process of aging was mimicked by induction of diabetes in male wister rats. Diabetes was induced in male wister rats (by repeated STZ injections) to mimic the process of aging and formation of AGE. Diabetic male wister rats were treated with compounds of formula (I) for a period of 8 weeks after induction of diabetes and collagen solubility was measured in Rat-Tail Tendon. Rat Tail Tendon were selected because of their similarity with skin collagen (i.e. Type I collagen). After 8 weeks of treatment the “control” and “treated” groups of animals were sacrificed and tail tendons were homogenized, digested with hydrochloric acid and the supernatant of both the groups of animals was assayed for hydroxyprolin for acid soluble collagen contents as per method of Stegemann and Stalder (clinica Chimica Acta, 18 (1967) 267-273).
Diabetes and aging are degenerative process where normal proteins like collagen become cross-linked. The cross linking of skin collagen can lead to complications like Aging. To test the ability of compounds of invention to break pre-formed AGE, diabetic animals were treated for 8 weeks with the compounds. After the treatment the collagen solubility was estimated to determine their AGE breaking activity.

[3] = test system: rat model of diabetic retinopathy; details: cited from earlier work
diabetic rats [4] = details: cited from earlier work
diabetic rats [5] = details: cited from earlier work; remark: listed apart in the source
old rats = details: Li et al (1996); cited from earlier work

T1 sequence (P02769 25-607): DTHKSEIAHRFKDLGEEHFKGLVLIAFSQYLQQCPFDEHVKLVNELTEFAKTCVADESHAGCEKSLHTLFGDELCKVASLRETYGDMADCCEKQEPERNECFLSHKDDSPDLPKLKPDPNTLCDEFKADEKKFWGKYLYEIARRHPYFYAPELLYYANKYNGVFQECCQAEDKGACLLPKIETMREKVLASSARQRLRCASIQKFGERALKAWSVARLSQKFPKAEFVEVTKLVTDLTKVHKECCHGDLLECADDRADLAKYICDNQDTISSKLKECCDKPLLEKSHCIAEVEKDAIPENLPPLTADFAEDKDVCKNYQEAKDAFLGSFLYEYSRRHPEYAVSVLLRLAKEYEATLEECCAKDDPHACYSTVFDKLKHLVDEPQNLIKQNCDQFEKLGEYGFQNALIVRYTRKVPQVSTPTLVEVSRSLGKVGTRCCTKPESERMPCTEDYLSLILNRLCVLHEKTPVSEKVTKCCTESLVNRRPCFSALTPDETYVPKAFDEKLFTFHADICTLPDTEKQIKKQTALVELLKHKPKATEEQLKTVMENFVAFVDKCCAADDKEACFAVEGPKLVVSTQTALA

SMILES | Relative Free Radical Scavenging Activity (%) on ABTS ([1]; 11.5 μM) | Relative Free Radical Scavenging Activity (%) on ABTS ([1]; 23.0 μM) | Relative Free Radical Scavenging Activity (%) on ABTS ([1]; 46.0 μM) | Relative Free Radical Scavenging Activity (%) on ABTS ([1]; 92.5 μM) | % Breakage (AGE-BSA; 5 mM test compound) | % Breakage (AGE-BSA; 10 mM test compound) | other results
Cc1sc[n+](CC(=O)c2ccccc2)c1C.[Cl-] [ALT-711] | – | – | – | – | – | – | arterial stiffness and arterial compliance (arterial stiffness): reverse diabetes induced increase of arterial stiffness and improve arterial compliance
O=C(C[n+]1cccc(C(=O)NNC(=O)c2ccc[n+](CC(=O)NC3CC3)c2)c1)NC1CC1.[Cl-].[Cl-] [Compound 39, N,N′-bis-[3-carbonyl-1-(2-cyclopropylamino-2-oxoethyl)pyridinium]hydrazine dichloride] | 43.0% | 62.8% | 95.6% | 98% | 22.8% | – | % Improvement in collagen solubility with respect to untreated control subject. ([2]; 6.0 mg/kg): 28.00%
O=C(NNC(=O)c1ccc[n+](CC(=O)c2cccs2)c1)c1ccc[n+](CC(=O)c2cccs2)c1.[Br-].[Br-] [Compound 6, N,N′-bis[3-carbonyl-1-(2-thien-2′-yl-2-oxoethyl)pyridinium]hydrazine dibromide] | – | – | – | – | 53% | – | % Improvement in collagen solubility with respect to untreated control subject. ([2]; 7.5 mg/kg): 56.70%
O=C(NNC(=O)c1ccc[n+](CC(=O)c2cccs2)c1)c1ccc[n+](CC(=O)c2cccs2)c1.[Cl-].[Cl-] [Compound 33, N,N′-bis[3-carbonyl-1-(2-thien-2′-yl-2-oxoethyl)pyridinium]hydrazine dichloride] | 58.4% | 72.8% | 98.5% | 100% | 20% | – | % Improvement in collagen solubility with respect to untreated control subject. ([2]; 15.0 mg/kg): 80.45%
N=C(N)NN [Aminoguanidine] | – | – | – | – | – | – | progression of diabetic retinopathy [3]: retard progression of diabetic retinopathy; development of diabetic nephropathy (diabetic rats [4]; Yamauchi (1997)): inhibits development of diabetic nephropathy; thickening of glomerular basement membrane (diabetic rats [4]; diabetic rats (Ellis 1991)): ameliorate thickening of glomerular basement membrane; rise in albuminuria (diabetic rats [4]; experimental diabetic rats (Soulis-Liparota, 1991)): attenuate the rise in albuminuria; nerve conduction velocity (diabetic rats [5]): improve nerve conduction velocity; tissue damage in aging (old rats): significantly prevent tissue damage
CS(=O)(=O)NNC(=O)c1ccc[n+](CC(=O)c2cccs2)c1.[Br-] [Compound 5, 1-(2-thien-2′-yl-2-oxoethyl)-3-(methanesulfonylhydrazinocarbonyl)pyridinium bromide] | 47.2% | 65.6% | 83.7% | 100% | – | 16% | % Breakage (AGE-BSA; 50 mM test compound): 68%; % Improvement in collagen solubility with respect to untreated control subject. ([2]; 10.0 mg/kg): 88.80%
O=C(NNC(=O)c1ccc[n+](CC(=O)c2cc([N+](=O)[O-])cs2)c1)c1ccc[n+](CC(=O)c2cc([N+](=O)[O-])cs2)c1.[Cl-].[Cl-] [Compound 56, N,N′-bis[3-carbonyl-1-(2-(4-nitrothien-2-yl)-2-oxoethyl)pyridinium]hydrazine dichloride] | 43.0% | 57.2% | 71.6% | 97.7% | – | 75.92% | Relative Free Radical Scavenging Activity (%) on ABTS ([1]; 925 μM): 100%
CS(=O)(=O)NNC(=O)c1ccc[n+](CC(=O)c2cccs2)c1.[Cl-] [Compound 45, 1-(2-thien-2′-yl-2-oxoethyl)-3-(methanesulfonyl hydrazinocarbonyl)pyridinium chloride] | 53.9% | 56.2% | 78.7% | 99.8% | – | 17.53% | Relative Free Radical Scavenging Activity (%) on ABTS ([1]; 925 μM): 100%
